# Source: paper doi:10.1101/2021.04.08.439011v1 (biorxiv, 2021)
# Where two headings read alike, the source gives them in different places.
# Key:
# MAP3K3 = MAP3K3 (Homo sapiens, UniProt Q99759); conditions: 0.1 µM; binder
# BRAF = BRAF (Homo sapiens, UniProt P15056); conditions: 0.1 µM; binder
# TSSK1B = TSSK1B (Homo sapiens, UniProt Q9BXA7); conditions: 0.1 µM; binder
# KIT(V559D,T670I) = KIT(V559D,T670I) (Homo sapiens, UniProt P10721, T670I/V559D); conditions: 0.1 µM; binder
# BLK = BLK (Homo sapiens, UniProt P51451); conditions: 0.1 µM; binder
# CAMK1D = CAMK1D (Homo sapiens, UniProt Q8IU85); conditions: 0.1 µM; binder
# CAMK2D = CAMK2D (Homo sapiens, UniProt Q13557); conditions: 0.1 µM; binder
# ABL1 = ABL1 (Homo sapiens, UniProt P00519); conditions: 0.1 µM, binder
# MEK1 = MEK1 (Homo sapiens, UniProt Q02750); conditions: 0.1 µM; binder
# MST2 = MST2 (Homo sapiens, UniProt Q13188); conditions: 0.1 µM; binder
# PKN2 = PKN2 (Homo sapiens, UniProt Q16513); conditions: 0.1 µM; binder
# AKT2 = AKT2 (Homo sapiens, UniProt P31751); conditions: 0.1 µM; binder
# MYLK3 = MYLK3 (Homo sapiens, UniProt Q32MK0); conditions: 0.1 µM; binder
# KIT(D816V) = KIT(D816V) (Homo sapiens, UniProt P10721, D816V); conditions: 0.1 µM; binder
# PIK3CA(E545A) = PIK3CA(E545A) (Homo sapiens, UniProt P42336, E545A); conditions: 0.1 µM; binder
# CSNK2A1 = CSNK2A1 (Homo sapiens, UniProt P68400); conditions: 0.1 µM; binder
# PRKR = PRKR (Homo sapiens, UniProt P19525); conditions: 0.1 µM; binder
# CDK5 = CDK5 (Homo sapiens, UniProt Q00535); conditions: 0.1 µM; binder
# IRAK4 = IRAK4 (Homo sapiens, UniProt Q9NWZ3); conditions: 0.1 µM; binder
# PIK4CB = PIK4CB (Homo sapiens, UniProt Q9UBF8); conditions: 0.1 µM; binder
# MET = MET (Homo sapiens, UniProt P08581); conditions: 0.1 µM; binder
# DSTYK = DSTYK (Homo sapiens, UniProt Q6XUX3); conditions: 0.1 µM; binder
# YANK3 = YANK3 (Homo sapiens, UniProt Q86UX6); conditions: 0.1 µM; binder
# CDK8 = CDK8 (Homo sapiens, UniProt P49336); conditions: 0.1 µM; binder
# ABL1(F317I) = ABL1(F317I) (Homo sapiens, UniProt P00519, F317I); conditions: 0.1 µM, binder
# TRKC = TRKC (Homo sapiens, UniProt Q16288); conditions: 0.1 µM; binder
# MST1R = MST1R (Homo sapiens, UniProt Q04912); conditions: 0.1 µM; binder
# CAMKK1 = CAMKK1 (Homo sapiens, UniProt Q8N5S9); conditions: 0.1 µM; binder
# EPHA6 = EPHA6 (Homo sapiens, UniProt Q9UF33); conditions: 0.1 µM; binder
# MAP4K3 = MAP4K3 (Homo sapiens, UniProt Q8IVH8); conditions: 0.1 µM; binder
# NEK5 = NEK5 (Homo sapiens, UniProt Q6P3R8); conditions: 0.1 µM; binder
# Chain of ABL1(F317I) (P00519 whole entry F317I): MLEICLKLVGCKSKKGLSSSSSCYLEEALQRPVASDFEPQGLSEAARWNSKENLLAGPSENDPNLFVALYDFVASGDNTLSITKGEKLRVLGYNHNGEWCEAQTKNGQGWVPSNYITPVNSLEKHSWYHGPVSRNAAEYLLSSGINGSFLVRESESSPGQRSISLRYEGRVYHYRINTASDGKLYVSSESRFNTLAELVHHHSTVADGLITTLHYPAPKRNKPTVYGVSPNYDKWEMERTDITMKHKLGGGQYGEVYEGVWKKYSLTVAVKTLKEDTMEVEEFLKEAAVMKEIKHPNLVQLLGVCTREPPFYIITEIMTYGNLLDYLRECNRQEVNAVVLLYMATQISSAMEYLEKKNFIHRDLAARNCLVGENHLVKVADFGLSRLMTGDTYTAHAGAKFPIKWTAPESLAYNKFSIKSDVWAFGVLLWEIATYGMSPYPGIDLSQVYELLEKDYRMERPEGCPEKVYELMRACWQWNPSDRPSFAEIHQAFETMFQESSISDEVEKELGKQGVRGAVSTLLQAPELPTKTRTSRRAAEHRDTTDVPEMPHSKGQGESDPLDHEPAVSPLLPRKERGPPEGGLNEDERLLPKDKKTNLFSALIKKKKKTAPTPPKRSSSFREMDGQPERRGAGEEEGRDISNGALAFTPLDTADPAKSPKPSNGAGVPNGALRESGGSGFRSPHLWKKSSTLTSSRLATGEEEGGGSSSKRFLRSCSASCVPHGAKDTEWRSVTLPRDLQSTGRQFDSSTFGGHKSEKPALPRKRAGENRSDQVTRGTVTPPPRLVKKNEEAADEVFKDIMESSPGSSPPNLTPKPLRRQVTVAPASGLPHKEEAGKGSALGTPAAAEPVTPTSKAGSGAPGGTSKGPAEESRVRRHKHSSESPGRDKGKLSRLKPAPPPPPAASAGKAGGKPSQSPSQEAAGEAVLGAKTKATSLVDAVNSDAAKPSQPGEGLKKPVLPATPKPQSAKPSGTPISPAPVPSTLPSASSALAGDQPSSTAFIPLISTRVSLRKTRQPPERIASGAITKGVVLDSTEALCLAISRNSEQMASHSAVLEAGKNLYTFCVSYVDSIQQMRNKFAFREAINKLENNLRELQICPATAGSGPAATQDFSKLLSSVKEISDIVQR
# Chain of ABL1 (P00519 whole entry): as the sequence (P00519 whole entry F317I) above, with I317F counted along it
# Chain of MAP4K3 (Q8IVH8 whole entry): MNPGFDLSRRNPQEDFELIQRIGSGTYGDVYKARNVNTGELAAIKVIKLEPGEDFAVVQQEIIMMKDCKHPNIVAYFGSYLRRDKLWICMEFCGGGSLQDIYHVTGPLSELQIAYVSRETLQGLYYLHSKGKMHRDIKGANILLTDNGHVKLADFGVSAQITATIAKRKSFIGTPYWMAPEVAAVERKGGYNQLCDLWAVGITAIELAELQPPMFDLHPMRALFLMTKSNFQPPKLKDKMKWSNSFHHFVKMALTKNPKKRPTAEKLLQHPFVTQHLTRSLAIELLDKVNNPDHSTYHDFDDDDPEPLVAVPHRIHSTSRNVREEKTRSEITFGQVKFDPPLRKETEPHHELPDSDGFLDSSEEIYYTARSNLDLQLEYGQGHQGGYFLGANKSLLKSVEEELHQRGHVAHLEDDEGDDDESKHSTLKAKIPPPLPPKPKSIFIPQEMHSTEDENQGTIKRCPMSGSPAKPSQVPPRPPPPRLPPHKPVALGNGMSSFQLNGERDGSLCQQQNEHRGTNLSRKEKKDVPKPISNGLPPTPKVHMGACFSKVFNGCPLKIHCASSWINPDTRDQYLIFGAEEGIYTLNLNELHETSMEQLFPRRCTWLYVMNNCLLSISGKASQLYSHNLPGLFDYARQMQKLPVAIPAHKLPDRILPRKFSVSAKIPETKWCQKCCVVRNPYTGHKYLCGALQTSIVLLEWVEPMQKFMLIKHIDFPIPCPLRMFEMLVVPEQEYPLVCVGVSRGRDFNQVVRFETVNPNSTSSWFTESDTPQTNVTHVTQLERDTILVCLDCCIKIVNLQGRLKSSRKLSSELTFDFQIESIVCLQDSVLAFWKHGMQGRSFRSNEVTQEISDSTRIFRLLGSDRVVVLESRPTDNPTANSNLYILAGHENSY
# Chain of PKN2 (Q16513 whole entry): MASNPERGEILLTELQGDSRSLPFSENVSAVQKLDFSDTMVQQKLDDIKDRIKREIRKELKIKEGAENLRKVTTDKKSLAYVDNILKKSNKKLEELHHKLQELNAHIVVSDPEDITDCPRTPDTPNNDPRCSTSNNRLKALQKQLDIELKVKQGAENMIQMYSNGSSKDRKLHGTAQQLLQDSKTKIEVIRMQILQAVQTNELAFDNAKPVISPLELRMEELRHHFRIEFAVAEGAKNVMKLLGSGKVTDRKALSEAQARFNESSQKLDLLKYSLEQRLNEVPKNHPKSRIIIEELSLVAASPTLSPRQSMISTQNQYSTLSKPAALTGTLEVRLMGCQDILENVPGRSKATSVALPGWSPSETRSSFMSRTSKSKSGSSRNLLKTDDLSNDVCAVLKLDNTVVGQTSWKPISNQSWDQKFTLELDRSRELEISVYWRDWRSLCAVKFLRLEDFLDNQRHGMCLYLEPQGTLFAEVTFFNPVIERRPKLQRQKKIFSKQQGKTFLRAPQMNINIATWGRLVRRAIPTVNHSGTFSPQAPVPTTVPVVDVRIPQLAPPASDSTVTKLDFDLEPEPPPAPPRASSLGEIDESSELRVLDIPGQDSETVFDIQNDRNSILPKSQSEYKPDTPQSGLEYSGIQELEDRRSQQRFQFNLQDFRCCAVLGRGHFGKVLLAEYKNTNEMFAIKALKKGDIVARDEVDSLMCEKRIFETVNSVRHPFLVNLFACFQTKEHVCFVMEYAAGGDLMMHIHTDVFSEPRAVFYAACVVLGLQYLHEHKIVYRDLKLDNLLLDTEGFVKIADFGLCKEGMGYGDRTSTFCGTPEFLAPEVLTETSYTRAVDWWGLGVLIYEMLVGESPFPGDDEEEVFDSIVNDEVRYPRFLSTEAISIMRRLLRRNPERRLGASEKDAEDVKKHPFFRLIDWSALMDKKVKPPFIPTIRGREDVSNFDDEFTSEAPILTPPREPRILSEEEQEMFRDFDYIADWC
# Chain of BLK (P51451 whole entry): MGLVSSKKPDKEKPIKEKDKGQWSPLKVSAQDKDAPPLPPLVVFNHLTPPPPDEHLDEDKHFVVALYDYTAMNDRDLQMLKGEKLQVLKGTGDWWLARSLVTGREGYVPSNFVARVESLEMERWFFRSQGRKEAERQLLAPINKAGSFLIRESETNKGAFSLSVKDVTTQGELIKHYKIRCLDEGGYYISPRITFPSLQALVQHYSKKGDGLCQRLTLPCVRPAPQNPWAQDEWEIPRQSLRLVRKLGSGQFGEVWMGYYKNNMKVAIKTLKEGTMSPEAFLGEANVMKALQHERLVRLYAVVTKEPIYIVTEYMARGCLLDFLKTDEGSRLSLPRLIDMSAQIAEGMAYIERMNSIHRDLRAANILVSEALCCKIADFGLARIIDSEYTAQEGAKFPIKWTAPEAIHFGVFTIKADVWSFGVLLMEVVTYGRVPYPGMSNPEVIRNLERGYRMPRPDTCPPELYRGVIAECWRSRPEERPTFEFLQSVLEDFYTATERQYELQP
# Chain of CSNK2A1 (P68400 whole entry): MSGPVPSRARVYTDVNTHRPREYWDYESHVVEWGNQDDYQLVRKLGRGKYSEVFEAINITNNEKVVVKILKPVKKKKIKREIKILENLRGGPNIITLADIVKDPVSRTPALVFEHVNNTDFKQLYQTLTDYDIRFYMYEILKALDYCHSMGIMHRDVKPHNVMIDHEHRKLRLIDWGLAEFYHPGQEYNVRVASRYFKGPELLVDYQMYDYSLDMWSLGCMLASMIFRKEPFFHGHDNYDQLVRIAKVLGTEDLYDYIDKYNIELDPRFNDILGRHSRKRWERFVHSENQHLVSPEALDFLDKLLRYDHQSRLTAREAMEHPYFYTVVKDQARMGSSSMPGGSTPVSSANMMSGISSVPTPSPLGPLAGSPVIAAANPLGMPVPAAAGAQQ
# Chain of TSSK1B (Q9BXA7 whole entry): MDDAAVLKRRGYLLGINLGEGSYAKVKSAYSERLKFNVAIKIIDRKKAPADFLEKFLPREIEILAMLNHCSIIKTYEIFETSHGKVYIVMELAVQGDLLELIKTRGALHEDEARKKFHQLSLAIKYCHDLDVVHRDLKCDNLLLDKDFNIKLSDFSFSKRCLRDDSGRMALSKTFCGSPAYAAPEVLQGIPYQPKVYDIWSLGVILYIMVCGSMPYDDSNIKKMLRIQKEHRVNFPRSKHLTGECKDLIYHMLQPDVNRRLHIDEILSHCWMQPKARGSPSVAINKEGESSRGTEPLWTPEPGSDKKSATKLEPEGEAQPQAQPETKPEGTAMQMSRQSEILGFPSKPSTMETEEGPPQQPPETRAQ
# Chain of AKT2 (P31751 whole entry): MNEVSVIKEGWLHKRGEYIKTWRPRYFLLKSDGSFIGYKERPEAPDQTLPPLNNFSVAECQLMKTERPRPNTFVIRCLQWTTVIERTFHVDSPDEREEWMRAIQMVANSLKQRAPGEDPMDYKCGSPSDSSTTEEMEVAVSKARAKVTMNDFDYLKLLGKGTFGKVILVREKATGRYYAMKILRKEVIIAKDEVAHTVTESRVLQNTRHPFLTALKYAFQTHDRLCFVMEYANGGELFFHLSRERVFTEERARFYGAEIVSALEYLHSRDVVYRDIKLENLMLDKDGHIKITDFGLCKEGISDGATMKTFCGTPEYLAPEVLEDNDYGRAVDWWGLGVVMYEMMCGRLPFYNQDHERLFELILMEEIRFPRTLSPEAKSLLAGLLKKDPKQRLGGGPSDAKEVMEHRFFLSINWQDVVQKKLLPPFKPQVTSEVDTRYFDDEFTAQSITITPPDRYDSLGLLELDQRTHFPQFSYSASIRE
smiles,measurement,setting,value
"CNc1ncc2cc(-c3ccc(-c4cccc(C)n4)cc3Cl)c(=O)n(C[C@H]3OC[C@H](N)CO3)c2n1 [compound 6, G-5555]",Percent Control,MAP3K3,86%
same,Percent Control,BRAF,100%
same,Percent Control,TSSK1B,98%
same,Percent Control,"KIT(V559D,T670I)",98%
same,Percent Control,BLK,100%
same,Percent Control,CAMK1D,43%
same,Percent Control,CAMK2D,100%
same,Percent Control,ABL1; nonphosphorylated,94%
same,Percent Control,ABL1; phosphorylated,95%
same,Percent Control,MEK1,24%
same,Percent Control,MST2,64%
same,Percent Control,PKN2,100%
same,Percent Control,AKT2,100%
same,Percent Control,MYLK3,74%
same,Percent Control,KIT(D816V),100%
same,Percent Control,PIK3CA(E545A),88%
same,Percent Control,CSNK2A1,88%
same,Percent Control,PRKR,100%
same,Percent Control,CDK5,100%
same,Percent Control,IRAK4,95%
same,Percent Control,PIK4CB,97%
same,Percent Control,MET,89%
same,Percent Control,DSTYK,90%
same,Percent Control,YANK3,99%
same,Percent Control,CDK8,100%
same,Percent Control,ABL1(F317I); nonphosphorylated,100%
same,Percent Control,ABL1(F317I); phosphorylated,87%
same,Percent Control,TRKC,84%
same,Percent Control,MST1R,73%
same,Percent Control,CAMKK1,100%
same,Percent Control,EPHA6,100%
same,Percent Control,MAP4K3,85%
same,Percent Control,NEK5,100%
